Source: paper PMC11676834, “Composition of Triterpene Glycosides of the Far Eastern Sea Cucumber Cucumaria conicospermium Levin et Stepanov; Structure Elucidation of Five Minor Conicospermiumosides A3-1, A3-2, A3-3, A7-1, and A7-2; Cytotoxicity of the Glycosides Against Human Breast Cancer Cell Lines; Structure–Activity …” (Marine Drugs, 2024)
Like-named read-outs stand apart in the source and are kept apart here.

Columns and labels:
in vitro = format: cell-based, human; details: human
From the text: (§1) Human erythrocytes were purchased from the Station of Blood Transfusion, Vladivostok. Human mammary epithelial cell line MCF-10A CRL-10317, human breast cancer cell lines T-47D HTB-133, MCF-7 HTB-22, and MDA-MB-231 CRM-HTB-26 were received from ATCC (Manassas, VA, USA). Culturing conditions: medium of RPMI-1640 with 1% penicillin/streptomycin (Biolot, St. Petersburg, Russia) and 10% fetal bovine serum (FBS) (Biolot, St. Petersburg, Russia) for the T-47D cell line; Minimum Essential Medium (MEM) with 1% penicillin/streptomycin sulfate (Biolot, St. Petersburg, Russia) and FBS (Biolot, St. Petersburg, Russia) to a final concentration of 10% for MCF-7 and MDA-MB-231 cells; DMEM/F12 medium with 10% FBS, 20 ng/mL EGF, […] hydrocortisone, 100 ng/mL cholera toxin, 10 μg/mL insulin, and 1% penicillin/streptomycin (BioinnLabs, Rostov-on-Don, Russia) for MCF-10A cell line.
(§2) The concentrations of tested glycosides were 0.1–50 µM; positive controls were cisplatin and okhotoside A1-1 (7). […] Then, the solutions of tested compounds with medium were replaced by 100 µL of fresh medium, and 10 µL of 3-(4,5-dimethylthiazol-2-yl)-2,5-diphenyltetrazolium bromide (MTT) (PanReac, AppliChem, Darmstadt, Germany) stock solution (5 mg/mL) was added to each well and incubated for 4 h, followed by the addition of 100 µL of SDS-HCl solution (1 g SDS/10 mL d-H2O/17 µL 6 N HCl) and further incubated for 18 h. Multiskan FC microplate photometer (Thermo Fisher Scientific, Waltham, MA, USA) was used to measure the absorbance of the converted dye formazan at 570 nm. The concentration caused the 50% cell metabolic activity inhibition (IC50) expresses the cytotoxic activity of each glycoside. The experiments were conducted in triplicate, p ≤ 0.05.

human erythrocytes = experiment: Hemolytic activity; format: cell-based; details: 1 h at 37 °C; for HC50: Erythrocyte, read-out: ED50, Erythrocytes (hemolytic activity)
Description: Human blood (B(III) Rh+) was used to obtain erythrocytes by centrifuging 450× g three times for 5 min with phosphate-buffered saline (PBS) (pH 7.4) at 4 °C on centrifuge LABOFUGE 400R (Heraeus, Hanau, Germany). Ice-cold PBS (pH 7.4) was used for resuspension of erythrocytes residue to a final optical density of 1.5 at 700 nm, which was kept on ice. Then, 10 µL of tested compound solution or control (okhotoside A1-1 (7)) were added to 90 µL of erythrocyte suspension in V-bottom 96-well plates and exposed for 1 h at 37 °C. Next, centrifugation at 900× g for 10 min on a laboratory centrifuge LMC-3000 (Biosan, Riga, Latvia), led to separation of layers, and 80 µL of supernatant was carefully decanted and transferred into new flat-plate for each. The values of erythrocyte lysis were measured on microplate photometer Multiskan FC (Thermo Fisher Scientific, Waltham, MA, USA) at λ = 570 nm as hemoglobin concentration in supernatant. The effective dose, causing lysis of 50% erythrocytes (ED50), was calculated with SigmaPlot 14.0 software. All the experiments were carried out in triple repetitions, p ≤ 0.05.

MDA-MB-231 cells [1] = experiment: Colony formation (clonogenic) assay, MDA-MB-231; format: cell-based, human
Description: (§3) The influence of glycosides on colony formation by MCF-10A or MDA-MB-231 cells was tested by the clonogenic assay. Cell density: 0.3 × 10^2/mL for MDA-MB-231 and for MCF-10A cells per well; incubation conditions: 10–12 days, 37 °C, atmosphere with 5% CO2; obtained: visible to eye colonies (at least 50 cells per colony); fixation with methanol (25 min); staining with 0.5% solution of crystal violet (25 min); washing and air-drying of plates. The counting of grown colonies was carried out using a BIO-PRINT-Cx4 Edge-Fixed Pad-Container (Vilber, Collégien, France) using Bio-Vision Software user and service manual-v18.01 (Vilber, Collégien, France). The results are presented as colony inhibition in comparison with the control.

MDA-MB-231 cells [2] = experiment: cells; format: cell-based, human
From the text: as §1, §2

T-47D cells = experiment: cells; format: cell-based, human; details: MTT, 24 h, read-out: Cytotoxicity, IC50, T-47D
From the text: as §1
(§4) The concentrations of tested glycosides were 0.1–50 µM; positive controls were cisplatin and okhotoside A1-1 (7). Methodology: to each well of 96-well plates, the cell suspension (180 µL) with solution (20 µL) of tested glycoside in a certain concentration was placed (MCF-10A, MCF-7, T-47D, and MDA-MB-231—7 × 10^3 cells per well) and incubated in the atmosphere with 5% CO2 at 37 °C for 24 h. Then, the solutions of tested compounds with medium were replaced by 100 µL of fresh medium, and 10 µL of 3-(4,5-dimethylthiazol-2-yl)-2,5-diphenyltetrazolium bromide (MTT) (PanReac, AppliChem, Darmstadt, Germany) stock solution (5 mg/mL) was added to each well and incubated for 4 h, followed by the addition of 100 µL of SDS-HCl solution (1 g SDS/10 mL d-H2O/17 µL 6 N HCl) and further incubated for 18 h. Multiskan FC microplate photometer (Thermo Fisher Scientific, Waltham, MA, USA) was used to measure the absorbance of the converted dye formazan at 570 nm. The concentration caused the 50% cell metabolic activity inhibition (IC50) expresses the cytotoxic activity of each glycoside. The experiments were conducted in triplicate, p ≤ 0.05.

MCF-7 cells = experiment: cells; format: cell-based, human; details: MTT, 24 h, read-out: Cytotoxicity, IC50, MCF-7
From the text: as §1, §4

MDA-MB-231 cells [3] = experiment: Wound scratch migration assay; format: cell-based, human; details: 24 h
Description: Attached to special migration plate plastic bottom MDA-MB-231 cells were separated by a silicone insert (Culture-insert 2 Well 24, ibiTreat). After removing an insert, the gap between the cells was 500 ± 50 μm. Cell debris and floating cells were deleted, and the fresh culture medium was added. Then, cells were treated with various concentrations of glycosides or culture medium only (vehicle control) and left for 24 hrs. Cell migration into the wound area was observed under a fluorescence microscope (MIB-2-FL, LOMO, Russia) with objective 10× magnification.

MCF-10A cells [4] = experiment: Colony formation (clonogenic) assay, MCF-10A; format: cell-based, human; details: 2 μM
Description: as §3

MCF-10A cells [5] = experiment: in vitro; format: cell-based, human
From the text: as §1, §2

[6] = 48 h, read-out: Cytotoxicity, IC50, 48 h, MCF-10A
[7] = 72 h, read-out: Cytotoxicity, IC50, 72 h, MCF-10A
[8] = MTT, 24 h, read-out: Cytotoxicity, IC50, MCF-10A
[9] = Homo sapiens, MDA-MB-231, inhibition out of control, read-out: Inhibition of colony growth of MDA-MB-231 cells
[10] = Homo sapiens, MDA-MB-231, 48 h, read-out: Cytotoxicity, IC50, 48 h, MDA-MB-231
[11] = Homo sapiens, MDA-MB-231, 72 h, read-out: Cytotoxicity, IC50, 72 h, MDA-MB-231
[12] = Homo sapiens, MDA-MB-231, MTT, 24 h, read-out: Cytotoxicity, IC50, MDA-MB-231

| Compound | IC50 (in vitro; [6]) [µM] | IC50 (in vitro; [7]) [µM] | IC50 (in vitro; [8]) [µM] | HC50 (human erythrocytes) [nM] | inhibition at 5 µM (MDA-MB-231 cells [1]; [9]) [%] | Tumor cell selectivity index (SI), IC50 MCF-10A / IC50 MDA-MB-231 (MDA-MB-231 cells [2]; 24 h) | Tumor cell selectivity index (SI), IC50 MCF-10A / IC50 MDA-MB-231 (MDA-MB-231 cells [2]; 48 h) | Tumor cell selectivity index (SI), IC50 MCF-10A / IC50 MDA-MB-231 (MDA-MB-231 cells [2]; 72 h) | IC50 (MDA-MB-231 cells [2]; [10]) [µM] | IC50 (MDA-MB-231 cells [2]; [11]) [µM] | IC50 (MDA-MB-231 cells [2]; [12]) [µM] | IC50 (T-47D cells; Homo sapiens, T47D) [µM] | IC50 (MCF-7 cells; Homo sapiens, MCF7) [µM] | also measured |
| --- | --- | --- | --- | --- | --- | --- | --- | --- | --- | --- | --- | --- | --- | --- |
| CO[C@@H]1[C@@H](O)[C@H](O[C@@H]2[C@@H](O)[C@H](O[C@H]3[C@H](O)[C@@H](O[C@@H]4OC[C@@H](O)[C@H](O)[C@H]4O)[C@H](O[C@H]4[C@H](O[C@H]5CC[C@]6(C)C7CC[C@]8(C)[C@@H]([C@@](C)(O)[C@H](O)CC=C(C)C)CC[C@@]8(C)C7=CC[C@H]6C5(C)C)OC[C@@H](OS(=O)(=O)[O-])[C@@H]4O)O[C@@H]3C)O[C@H](COS(=O)(=O)[O-])[C@H]2O)O[C@H](CO)[C@H]1O.[Na+].[Na+] (stereo partly drawn) [Conicospermiumoside A3-1 (1), 3β-O-{3-O-methyl-β-D-glucopyranosyl-(1→3)-6-O-sodium sulfate-β-D-glucopyranosyl-(1→4)-[(1→2)-β-D-xylopyranosyl]-β-D-quinovopyranosyl-(1→2)-4-O-sodium sulfate-β-D-xylopyranosyl}-20R,22R-dihydroxylanosta-7,24-diene] | 30.4 ± 1.05 | 39 ± 2.15 | 13.6 ± 0.71 | 770 ± 70 | 99.6 | 2.29 | 11.97 | 3.14 | 2.54 ± 0.09 | 12.4 ± 0.75 | 5.93 ± 0.35 | 19.9 ± 1.02 | 41.7 ± 3.08 | – |
| CO[C@@H]1[C@@H](O)[C@H](O[C@@H]2[C@@H](O)[C@H](O[C@H]3[C@H](O)[C@@H](O[C@@H]4OC[C@@H](O)[C@H](O)[C@H]4O)[C@H](O[C@H]4[C@H](O[C@H]5CC[C@]6(C)C7CC[C@]8(C)[C@@H]([C@@](C)(O)C(=O)CC=C(C)C)CC[C@@]8(C)C7=CC[C@H]6C5(C)C)OC[C@@H](OS(=O)(=O)[O-])[C@@H]4O)O[C@@H]3C)O[C@H](COS(=O)(=O)[O-])[C@H]2O)O[C@H](CO)[C@H]1O.[Na+].[Na+] (stereo partly drawn) [Conicospermiumoside A3-3 (3), 3β-O-{3-O-methyl-β-D-glucopyranosyl-(1→3)-6-O-sodium sulfate-β-D-glucopyranosyl-(1→4)-[(1→2)-β-D-xylopyranosyl]-β-D-quinovopyranosyl-(1→2)-4-O-sodium sulfate-β-D-xylopyranosyl}-20R-hydroxy,22-oxolanosta-7,24-diene] | 10.6 ± 0.72 | 5.27 ± 0.36 | 11.4 ± 0.58 | 210 ± 20 | 98.8 | 2.03 | 1.05 | 1.02 | 10.1 ± 0.71 | 5.18 ± 0.43 | 5.62 ± 0.26 | 10.7 ± 0.94 | 28.5 ± 1.18 | inhibition at 2 µM (MDA-MB-231 cells [3]; Homo sapiens, MDA-MB-231, 2 μM, read-out: Inhibition of migration of MDA-MB-231 cells as compared with control): 63.7%; inhibition at 2 µM (MDA-MB-231 cells [1]; Homo sapiens, MDA-MB-231, 2 μM, read-out: Inhibition of colony growth of MDA-MB-231 cells): 96.8% |
| CO[C@@H]1[C@@H](O)[C@H](O[C@@H]2[C@@H](O)[C@H](O[C@H]3[C@H](O)[C@@H](O[C@@H]4OC[C@@H](O)[C@H](O)[C@H]4O)[C@H](O[C@H]4[C@H](O[C@H]5CC[C@]6(C)C7=CC[C@]8(C)[C@@H]([C@@](C)(O)C(=O)CC=C(C)C)CC[C@@]8(C)C7CC[C@H]6C5(C)C)OC[C@@H](OS(=O)(=O)[O-])[C@@H]4O)O[C@@H]3C)O[C@H](COS(=O)(=O)[O-])[C@H]2O)O[C@H](COS(=O)(=O)[O-])[C@H]1O.[Na+].[Na+].[Na+] (stereo partly drawn) [Conicospermiumoside A7-1 (4), 3β-O-{6-O-sodium sulfate-3-O-methyl-β-D-glucopyranosyl-(1→3)-6-O-sodium sulfate-β-D-glucopyranosyl-(1→4)-[(1→2)-β-D-xylopyranosyl]-β-D-quinovopyranosyl-(1→2)-4-O-sodium sulfate-β-D-xylopyranosyl}-(20R)-hydroxy-22-oxo-lanosta-9(11),24-diene] | 35.5 ± 1.59 | 11.1 ± 0.57 | 40.2 ± 2.1 | 360 ± 40 | – | – | 2.32 | 0.99 | 15.3 ± 1.01 | 11.2 ± 0.73 | 4.78 ± 0.23 | 19.7 ± 1.01 | > 50 | Influence on colony formation and growth of MCF-10A cells (MCF-10A cells [4]): did not influence |
| DS-okhotoside A1-1 [DS-okhotoside A1-1 (7a)] | – | – | – | – | – | 2.76 | 1.20 | 1.42 | – | – | – | – | – | Inhibition of migration of MDA-MB-231 cells as compared with control (MDA-MB-231 cells [3]; 0.5 μM): 61.2%; Constraint on cell motility (migration) of MDA-MB-231 cells (MDA-MB-231 cells [3]; 1 μM): 85%; IC50 (MCF-10A cells [5]; [6]): 5.18 ± 0.28 µM; IC50 (MCF-10A cells [5]; [7]): 3.87 ± 0.24 µM; IC50 (MCF-10A cells [5]; [8]): 7.81 ± 0.32 µM; ED50, Erythrocytes (hemolytic activity) (human erythrocytes): 0.24 ± 0.02 µM; Inhibition of colony growth of MDA-MB-231 cells (MDA-MB-231 cells [1]; 1 μM, inhibition out of control): 97.2%; IC50 (MDA-MB-231 cells [2]; 48 h, read-out: Cytotoxicity, IC50, 48 h, MDA-MB-231): 4.32 ± 0.3 µM; IC50 (MDA-MB-231 cells [2]; 72 h, read-out: Cytotoxicity, IC50, 72 h, MDA-MB-231): 2.73 ± 0.18 µM; IC50 (MDA-MB-231 cells [2]; MTT, 24 h, read-out: Cytotoxicity, IC50, MDA-MB-231): 2.83 ± 0.36 µM; IC50 (T-47D cells): 7.8 ± 0.31 µM; IC50 (MCF-7 cells): 18.8 ± 1.02 µM |
